In patent US6706663B2, “Herbicidal 3-heterocyclic substituted benzisothiazole and benzisoxazole compounds” (Wyeth, priority 2000, dated 2004):

Tests used:
[1] = tested on: ABUTH (Abutilon theophrasti); experiment: Postemergence herbicidal evaluation; format: in vivo, Medic.; conditions: for ABUTH herbicidal rating: postemergence
Summary of the method: (§1)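 Seedlings grown about two weeks in flats, sprayed, then kept under standard greenhouse care. Rated visually 4–5 weeks after treatment on a 0–9 scale (stand, vigour, malformation, size, chlorosis, overall appearance) relative to untreated control; repeat tests averaged.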

[2] = tested on: AMBEL (Ambrosia artemisifolia); experiment: Postemergence herbicidal evaluation; format: in vivo, L.; conditions: for AMBEL herbicidal rating: postemergence
Summary of the method: as §1

[3] = tested on: CASOB (Cassia obtusifolia); experiment: Postemergence herbicidal evaluation; format: in vivo, L.; conditions: for CASOB herbicidal rating: postemergence
Summary of the method: as §1

[4] = tested on: CHEAL (Chenopodium album); experiment: Postemergence herbicidal evaluation; format: in vivo, L.; conditions: for CHEAL herbicidal rating: postemergence
Summary of the method: as §1

GALAP (Galium aparine) = experiment: Postemergence herbicidal evaluation; format: in vivo; conditions: for GALAP herbicidal rating: postemergence
Summary of the method: as §1

[5] = tested on: IPOHE (Ipomoea hederacea); experiment: Preemergence herbicidal evaluation; format: in vivo, (L.) Jacq.; conditions: rated 4-5 weeks after treatment
[6] = tested on: GLXMAW (Soybean, Williams); experiment: Preemergence herbicidal evaluation; format: in vivo, Glycine max, (L.) Merr. cv Williams; conditions: rated 4-5 weeks after treatment
ZEAMX (Corn, Field) = experiment: Preemergence herbicidal evaluation; format: in vivo, Zea mays, L.; conditions: rated 4-5 weeks after treatment
CYPIR (Cyperus iria) = experiment: Flooded paddy, preemergence weed control; format: in vivo; conditions: rated 3-4 weeks after treatment, 0-9 rating scale
Summary of the method: (§2)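 Seeds or propagules were planted in the top 0.5 cm of silt loam soil and kept flooded 1.5–3 cm above the surface throughout, then held in the greenhouse. Injury was rated visually on a 0–9 scale against untreated controls, covering stand, vigor, malformation, size and chlorosis.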

[7] = tested on: SAGPY (Sagittaria pygmaea); experiment: Flooded paddy, preemergence weed control; format: in vivo, L.; conditions: rated 3-4 weeks after treatment, 0-9 rating scale
Summary of the method: as §2

ORYSAT (Rice, Tebonnet) = experiment: Flooded paddy, post-transplant rice tolerance; format: in vivo, Oryza sativa, (L.) Tebonnet; conditions: flooded paddy, post-transplant rice, rated 3-4 weeks after treatment, 0-9 rating scale
Summary of the method: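 Steps: transplant two ten-day-old seedlings into silt loam; flood to 1.5-3 cm above soil; apply herbicide post-transplant; maintain water on greenhouse benches; rate stand, vigor, malformation, size and chlorosis on a 0-9 visual scale versus control.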

Cn1c(C(F)(F)F)cc(=O)n(-c2ccc3snc(C4OCCCS4)c3c2)c1=O (centres unmarked) [Compound 34, 1-methyl-3-[3-(1,3-oxathian-2-yl)-1,2-benzisothiazol-5-yl]-6-(trifluoromethyl)uracil]
ABUTH herbicidal rating ([1]; rate 0.0320 kg/ha): 9.0 | ABUTH herbicidal rating ([1]; rate 0.0620 kg/ha): 9.0 | Postemergence herbicidal rating, ABUTH ([1]; rate 0.0320 kg/ha): 9.0 | Postemergence herbicidal rating, ABUTH ([1]; rate 0.0620 kg/ha): 9.0 | AMBEL herbicidal rating ([2]; rate 0.0320 kg/ha): 7.0 | AMBEL herbicidal rating ([2]; rate 0.0620 kg/ha): 9.0 | Postemergence herbicidal rating, AMBEL ([2]; rate 0.0320 kg/ha): 9.0 | Postemergence herbicidal rating, AMBEL ([2]; rate 0.0620 kg/ha): 9.0 | CASOB herbicidal rating ([3]; rate 0.0320 kg/ha): 6.0 | CASOB herbicidal rating ([3]; rate 0.0620 kg/ha): 6.0 | Postemergence herbicidal rating, CASOB ([3]; rate 0.0320 kg/ha): 9.0 | Postemergence herbicidal rating, CASOB ([3]; rate 0.0620 kg/ha): 9.0 | CHEAL herbicidal rating ([4]; rate 0.0320 kg/ha): 7.0 | CHEAL herbicidal rating ([4]; rate 0.0620 kg/ha): 9.0 | Postemergence herbicidal rating, CHEAL ([4]; rate 0.0320 kg/ha): 7.0 | Postemergence herbicidal rating, CHEAL ([4]; rate 0.0620 kg/ha): 9.0 | GALAP herbicidal rating (GALAP (Galium aparine); rate 0.0320 kg/ha): 2.0 | GALAP herbicidal rating (GALAP (Galium aparine); rate 0.0620 kg/ha): 6.0 | Postemergence herbicidal rating, GALAP (GALAP (Galium aparine); rate 0.0320 kg/ha): 6.0 | Postemergence herbicidal rating, GALAP (GALAP (Galium aparine); rate 0.0620 kg/ha): 7.0 | IPOHE preemergence herbicidal rating ([5]; Rate 0.0620 kg/ha): 9.0 | Preemergence herbicidal rating IPOHE ([5]; Rate 0.0620 kg/ha): 6.0 | IPOHE preemergence herbicidal rating ([5]; Rate 0.1250 kg/ha): 9.0 | Preemergence herbicidal rating IPOHE ([5]; Rate 0.1250 kg/ha): 6.0 | IPOHE preemergence herbicidal rating ([5]; Rate 0.2500 kg/ha): 9.0 | Preemergence herbicidal rating IPOHE ([5]; Rate 0.2500 kg/ha): 9.0 | GLXMAW preemergence herbicidal rating ([6]; Rate 0.0620 kg/ha): 7.5 | Preemergence herbicidal rating GLXMAW ([6]; Rate 0.0620 kg/ha): 6.5 | GLXMAW preemergence herbicidal rating ([6]; Rate 0.1250 kg/ha): 9.0 | Preemergence herbicidal rating GLXMAW ([6]; Rate 0.1250 kg/ha): 7.0 | GLXMAW preemergence herbicidal rating ([6]; Rate 0.2500 kg/ha): 9.0 | Preemergence herbicidal rating GLXMAW ([6]; Rate 0.2500 kg/ha): 7.0 | ZEAMX preemergence herbicidal rating (ZEAMX (Corn, Field); Rate 0.0620 kg/ha): 5.0 | Preemergence herbicidal rating ZEAMX (ZEAMX (Corn, Field); Rate 0.0620 kg/ha): 4.5 | ZEAMX preemergence herbicidal rating (ZEAMX (Corn, Field); Rate 0.1250 kg/ha): 7.0 | Preemergence herbicidal rating ZEAMX (ZEAMX (Corn, Field); Rate 0.1250 kg/ha): 6.0 | ZEAMX preemergence herbicidal rating (ZEAMX (Corn, Field); Rate 0.2500 kg/ha): 9.0 | Preemergence herbicidal rating ZEAMX (ZEAMX (Corn, Field); Rate 0.2500 kg/ha): 6.5 | herbicidal rating, CYPIR (CYPIR (Cyperus iria); rate 0.0320 kg/ha): 9.0 | herbicidal rating, CYPIR (CYPIR (Cyperus iria); rate 0.0620 kg/ha): 7.0 | herbicidal rating, SAGPY ([7]; rate 0.0080 kg/ha): 0.0 | herbicidal rating, SAGPY ([7]; rate 0.0320 kg/ha): 4.7 | herbicidal rating, SAGPY ([7]; rate 0.0620 kg/ha): 3.5 | herbicidal rating, ORYSAT (rice tolerance) (ORYSAT (Rice, Tebonnet); rate 0.0080 kg/ha): 3.0 | herbicidal rating, ORYSAT (rice tolerance) (ORYSAT (Rice, Tebonnet); rate 0.0080 kg/ha, listed as 81): 5.0 | herbicidal rating, ORYSAT (rice tolerance) (ORYSAT (Rice, Tebonnet); rate 0.0320 kg/ha): 6.7 | herbicidal rating, ORYSAT (rice tolerance) (ORYSAT (Rice, Tebonnet); rate 0.0620 kg/ha): 8.5 | herbicidal rating, ORYSAT (rice tolerance) (ORYSAT (Rice, Tebonnet); rate 0.1250 kg/ha): 9.0 | herbicidal rating, ORYSAT (rice tolerance) (ORYSAT (Rice, Tebonnet); rate 0.1250 kg/ha, listed as 81): 8.0

Cn1c(C(F)(F)F)cc(=O)n(-c2ccc3snc(C4OCC(C)(C)CO4)c3c2)c1=O [Compound 36, 3-[3(5,5-dimethyl-m-dioxan-2-yl)-1,2-benzisothiazol-5-yl]-1-methyl-6-(trifluoromethyl)uracil]
Postemergence herbicidal rating, ABUTH ([1]; rate 0.0320 kg/ha): 9.0 | Postemergence herbicidal rating, ABUTH ([1]; rate 0.0620 kg/ha): 9.0 | Postemergence herbicidal rating, AMBEL ([2]; rate 0.0320 kg/ha): 9.0 | Postemergence herbicidal rating, AMBEL ([2]; rate 0.0620 kg/ha): 9.0 | Postemergence herbicidal rating, CASOB ([3]; rate 0.0320 kg/ha): 9.0 | Postemergence herbicidal rating, CASOB ([3]; rate 0.0620 kg/ha): 9.0 | Postemergence herbicidal rating, CHEAL ([4]; rate 0.0320 kg/ha): 7.0 | Postemergence herbicidal rating, CHEAL ([4]; rate 0.0620 kg/ha): 9.0 | Postemergence herbicidal rating, GALAP (GALAP (Galium aparine); rate 0.0320 kg/ha): 4.0 | Postemergence herbicidal rating, GALAP (GALAP (Galium aparine); rate 0.0620 kg/ha): 5.0 | IPOHE preemergence herbicidal rating ([5]; Rate 0.0620 kg/ha): 3.5 | IPOHE preemergence herbicidal rating ([5]; Rate 0.1250 kg/ha): 6.5 | IPOHE preemergence herbicidal rating ([5]; Rate 0.2500 kg/ha): 9.0 | GLXMAW preemergence herbicidal rating ([6]; Rate 0.0620 kg/ha): 8.0 | GLXMAW preemergence herbicidal rating ([6]; Rate 0.1250 kg/ha): 9.0 | GLXMAW preemergence herbicidal rating ([6]; Rate 0.2500 kg/ha): 9.0 | ZEAMX preemergence herbicidal rating (ZEAMX (Corn, Field); Rate 0.0620 kg/ha): 8.0 | ZEAMX preemergence herbicidal rating (ZEAMX (Corn, Field); Rate 0.1250 kg/ha): 8.0 | ZEAMX preemergence herbicidal rating (ZEAMX (Corn, Field); Rate 0.2500 kg/ha): 9.0 | herbicidal rating, CYPIR (CYPIR (Cyperus iria); rate 0.0080 kg/ha): 0.0 | herbicidal rating, CYPIR (CYPIR (Cyperus iria); rate 0.0320 kg/ha): 9.0 | herbicidal rating, CYPIR (CYPIR (Cyperus iria); rate 0.1250 kg/ha): 9.0 | herbicidal rating, SAGPY ([7]; rate 0.0080 kg/ha): 0.0 | herbicidal rating, SAGPY ([7]; rate 0.0320 kg/ha): 3.5 | herbicidal rating, SAGPY ([7]; rate 0.1250 kg/ha): 9.0 | herbicidal rating, ORYSAT (rice tolerance) (ORYSAT (Rice, Tebonnet); rate 0.0080 kg/ha): 5.0 | herbicidal rating, ORYSAT (rice tolerance) (ORYSAT (Rice, Tebonnet); rate 0.0320 kg/ha): 7.5 | herbicidal rating, ORYSAT (rice tolerance) (ORYSAT (Rice, Tebonnet); rate 0.1250 kg/ha): 9.0
